What follows are compounds tested against human neprilysin (EC 3.4.24.11; NEP) (Homo sapiens (Human), UniProt P08473) (assay: In vitro enzyme inhibition assay at human NEP (fluorogenic peptide substrate)). Conditions: pKi values at human NEP, recombinant human NEP.
Format: biochemical
Procedure: In Vitro Assays for the Quantitation of Inhibitor Potencies at Human and Rat NEP, and Human ACE
The inhibitory activities of compounds at human and rat neprilysin (EC 3.4.24.11; NEP) and human angiotensin converting enzyme (ACE) were determined using in vitro assays as described below.
Recombinant human NEP and recombinant human ACE were obtained commercially (R&D Systems, Minneapolis, Minn., catalog numbers 1182-ZN and 929-ZN, respectively). The fluorogenic peptide substrate Mca-D-Arg-Arg-Leu-Dap-(Dnp)-OH (Medeiros et al. (1997) Braz. J. Med. Biol. Res. 30:1157-62; Anaspec, San Jose, Calif.) and Abz-Phe-Arg-Lys(Dnp)-Pro-OH (Araujo et al. (2000) Biochemistry 39:8519-8525; Bachem, Torrance, Calif.) were used in the NEP and ACE assays respectively.
The assays were performed in 384-well white opaque plates at 37° C. using the fluorogenic peptide substrates at a concentration of 10 μM in Assay Buffer (NEP: 50 mM HEPES, pH 7.5, 100 mM NaCl, 0.01% polyethylene glycol sorbitan monolaurate (Tween-20), 10 μM ZnSO4; ACE: 50 mM HEPES, pH 7.5, 100 mM NaCl, 0.01% Tween-20, 1 μM ZnSO4).
Test compounds were assayed over the range of concentrations from 10 μM to pM. Test compounds were added to the enzymes and incubated for 30 minute at 37° C. prior to initiating the reaction by the addition of substrate. Reactions were terminated after 20 minutes of incubation at 37° C. by the addition of glacial acetic acid to a final concentration of 3.6% (v/v).
Plates were read on a fluorometer with excitation and emission wavelengths set to 320 nm and 405 nm, respectively. Inhibition constants were obtained by nonlinear regression of the data using the equation (GraphPad Software, Inc., San Diego, Calif.): v=v0/[1+(I/K′)] where v is the reaction rate, v0 is the uninhibited reaction rate, I is the inhibitor concentration and K′ is the apparent inhibition constant.
Compounds of the invention were tested in this assay and found to have pKi values at human NEP as follows.

Chain of human neprilysin (EC 3.4.24.11; NEP) (P08473 52-750): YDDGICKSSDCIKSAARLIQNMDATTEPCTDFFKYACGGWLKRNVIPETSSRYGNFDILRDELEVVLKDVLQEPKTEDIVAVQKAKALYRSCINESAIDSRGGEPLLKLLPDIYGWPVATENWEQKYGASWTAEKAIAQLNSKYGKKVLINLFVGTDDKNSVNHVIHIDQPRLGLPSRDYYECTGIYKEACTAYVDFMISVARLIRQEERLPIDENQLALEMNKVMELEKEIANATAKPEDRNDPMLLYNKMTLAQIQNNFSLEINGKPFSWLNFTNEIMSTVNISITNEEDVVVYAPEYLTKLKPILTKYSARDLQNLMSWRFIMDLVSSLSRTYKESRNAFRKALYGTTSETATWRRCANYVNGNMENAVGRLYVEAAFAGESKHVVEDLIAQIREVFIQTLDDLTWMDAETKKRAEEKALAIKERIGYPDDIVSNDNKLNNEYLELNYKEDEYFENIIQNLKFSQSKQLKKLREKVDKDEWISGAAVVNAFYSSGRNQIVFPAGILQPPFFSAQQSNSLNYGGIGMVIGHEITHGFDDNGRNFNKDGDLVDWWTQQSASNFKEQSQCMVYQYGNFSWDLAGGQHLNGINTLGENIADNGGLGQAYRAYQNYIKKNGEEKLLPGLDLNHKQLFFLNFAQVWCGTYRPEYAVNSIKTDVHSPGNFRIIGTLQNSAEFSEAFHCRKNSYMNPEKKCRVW

SMILES | Ki [nM] | pKi
O=C(N[C@H](Cc1ccc(-c2ccccc2)cc1)C[C@@H](O)C(=O)O)c1cc2n(n1)C[C@@H](O)COc1ccccc1-2 [Example 16-5, (2R,4R)-5-Biphenyl-4-yl-2-hydroxy-4-[((R)-8-hydroxy-10-oxa-5,6-diaza-tricyclo[9.4.0.02,6]pentadeca-1(15),2,4,11,13-pentaene-4-carbonyl)-amino]-pentanoic acid] | 12.6 to 100 | –
CCC(=O)Nc1cc(C(=O)N[C@H](Cc2ccc(-c3ccccc3)cc2)CC(O)C(=O)O)[nH]n1 (stereo partly drawn) [Example 15-91, (R)-5-Biphenyl-4-yl-2-hydroxy-4-[(5-propionylamino-2H-pyrazole-3-carbonyl)-amino]-pentanoic acid] | 12.6 to 100 | –
O=C(N[C@H](Cc1ccc(-c2ccccc2)cc1)CC(O)C(=O)O)c1ccc2[nH]nnc2c1 (stereo partly drawn) [Example 11-3, (R)-4-[(1H-Benzotriazole-5-carbonyl)amino]-5-biphenyl-4-yl-2-hydroxypentanoic acid] | 1.26 to 10 | –
O=C(N[C@H](Cc1ccc(-c2ccccc2)cc1)CC(O)C(=O)O)c1cc(F)c2[nH]nnc2c1 (stereo partly drawn) [Example 11-4, (R)-5-Biphenyl-4-yl-4-[(7-fluoro-1H-benzotriazole-5-carbonyl)amino]-2-hydroxy-pentanoic acid] | 1.26 to 10 | –
O=C(N[C@H](Cc1ccc(-c2ccccc2)cc1)C[C@@H](O)C(=O)O)c1cc(-c2ccccc2Cl)on1 [Example 12-16, (2R,4R)-5-Biphenyl-4-yl-4-{[5-(2-chlorophenyl)-isoxazole-3-carbonyl]-amino}-2-hydroxy-pentanoic acid] | – | ≥9.0
CC(C)c1cc(C(=O)N[C@H](Cc2ccc(-c3cccc(Cl)c3)cc2)C[C@@H](O)C(=O)O)on1 [Example 18-10, (2R,4R)-5-(3′-Chloro-biphenyl-4-yl)-2-hydroxy-4-[(3-isopropyl-isoxazole-5-carbonyl)-amino]-pentanoic acid] | – | ≥9.0
O=C(N[C@H](Cc1ccc(-c2ccccc2)cc1)C[C@@H](O)C(=O)O)c1cc(-c2ccccc2F)no1 [Example 12-9, (2R,4R)-5-Biphenyl-4-yl-4-{[3-(2-fluorophenyl)-isoxazole-5-carbonyl]-amino}-2-hydroxy-pentanoic acid] | – | ≥9.0
Nc1cc(C(=O)N[C@H](Cc2ccc(-c3ccccc3)cc2)CC(O)C(=O)O)n[nH]1 (stereo partly drawn) [Example 15-101, (R)-4-[(5-Amino-2H-pyrazole-3-carbonyl)-amino]-5-biphenyl-4-yl-2-hydroxy-pentanoic acid] | 12.6 to 100 | –
O=C(N[C@H](Cc1ccc(-c2ccccc2)cc1)C[C@@H](O)C(=O)O)c1cnc(O)nc1 [Example 6-B, (2R,4R)-5-Biphenyl-4-yl-2-hydroxy-4-[(2-hydroxypyrimidine-5-carbonyl)amino]pentanoic Acid] | – | ≥9.0
O=C(N[C@H](Cc1ccc(-c2ccccc2)cc1)CC(O)C(=O)O)c1cc(C(=O)O)n(Cc2ccc(Cl)cc2F)n1 (stereo partly drawn) [Example 15-13, 5-((R)-1-Biphenyl-4-ylmethyl-3-carboxy-3-hydroxy-propylcarbamoyl)-2-(4-chloro-2-fluorobenzyl)-2H-pyrazole-3-carboxylic acid] | 1.26 to 10 | –
COc1ccccc1C(=O)Nc1cc(C(=O)N[C@H](Cc2ccc(-c3cccc(Cl)c3)cc2)C[C@@H](O)C(=O)O)[nH]n1 [Example 18-31, (2R,4R)-5-(3′-Chloro-biphenyl-4-yl)-2-hydroxy-4-{[5-(2-methoxy-benzoylamino)-2H-pyrazole-3-carbonyl]-amino}-pentanoic acid] | – | ≥9.0
O=C(O)c1ccc(Cn2nnc3cc(C(=O)N[C@H](Cc4ccc(-c5ccccc5)cc4)C[C@H](O)C(=O)O)ccc32)cc1 [Example 11-2, 4-[5-((1R,3S)-1-Biphenyl-4-ylmethyl-3-carboxy-3-hydroxypropylcarbamoyl)-benzotriazol-1-ylmethyl]-benzoic acid] | 12.6 to 100 | –
O=C(NC1CC1)c1cc(C(=O)N[C@H](Cc2ccc(-c3ccccc3)cc2)C[C@H](O)C(=O)O)[nH]n1 [Example 15-55, (2S,4R)-5-Biphenyl-4-yl-4-[(5-cyclopropylcarbamoyl-2H-pyrazole-3-carbonyl)-amino]-2-hydroxypentanoic acid] | 12.6 to 100 | –
O=C(N[C@H](Cc1ccc(-c2ccccc2)cc1)CC(O)C(=O)O)c1cc(C(=O)O)n(Cc2ccc(Cl)c(OC(F)(F)F)c2)n1 (stereo partly drawn) [Example 15-12, 5-((R)-1-Biphenyl-4-ylmethyl-3-carboxy-3-hydroxy-propylcarbamoyl)-2-(4-chloro-3-trifluoromethoxybenzyl)-2H-pyrazole-3-carboxylic acid] | 12.6 to 100 | –
CC(=O)OCOn1nnc2ccc(C(=O)N[C@H](Cc3ccc(-c4cc(Cl)ccc4Cl)cc3)C[C@@H](O)C(=O)O)cc21 [Example 19-21, (2R,4R)-4-[(3-Acetoxymethoxy-3H-benzotriazole-5-carbonyl)-amino]-5-(2′,5-dichloro-biphenyl-4-yl)-2-hydroxy-pentanoic acid] | ≤ 1 | –
O=C(N[C@H](Cc1ccc(-c2ccccc2)cc1)CC(O)C(=O)O)c1cnc2nn[nH]c2c1 (stereo partly drawn) [Example 11-11, (R)-5-Biphenyl-4-yl-2-hydroxy-4-[(1H-[1,2,3]triazolo[4,5-b]pyridine-6-carbonyl)-amino]-pentanoic acid] | 1.26 to 10 | –
O=C(N[C@H](Cc1ccc(-c2ccccc2)cc1)CC(O)C(=O)O)c1cc(C2CC2)n[nH]1 (stereo partly drawn) [Example 15-72, (R)-5-Biphenyl-4-yl-4-[(5-cyclopropyl-2H-pyrazole-3-carbonyl)-amino]-2-hydroxy-pentanoic acid] | 12.6 to 100 | –
O=C(N[C@H](Cc1ccc(-c2ccccc2)cc1)C[C@@H](O)C(=O)O)c1cc(C(=O)N2CCCC2)n[nH]1 [Example 5-B, (2R,4R)-5-Biphenyl-4-yl-2-hydroxy-4-{[5-(pyrrolidine-1-carbonyl)-2H-pyrazole-3-carbonyl]-amino}pentanoic Acid] | – | ≥9.0
O=C(N[C@H](Cc1ccc(-c2ccccc2)cc1)C[C@@H](O)C(=O)O)c1cnc(-c2ccccc2)o1 [Example 12-23, (2R,4R)-5-Biphenyl-4-yl-2-hydroxy-4-[(2-phenyl-oxazole-5-carbonyl)-amino]-pentanoic acid] | 1.26 to 10 | –
O=C(N[C@H](Cc1ccc(-c2ccccc2)cc1)C[C@@H](O)C(=O)O)c1cn(O)nn1 [Example 10-3, (2R,4R)-5-Biphenyl-4-yl-2-hydroxy-4-[(1-hydroxy-1H-[1,2,3]triazole-4-carbonyl)-amino]-pentanoic acid] | – | ≥9.0
Cn1nc(C(=O)N[C@H](Cc2ccc(-c3cccc(Cl)c3)cc2)C[C@@H](O)C(=O)O)cc1O [Example 18-35, (2R,4R)-5-(3′-Chloro-biphenyl-4-yl)-2-hydroxy-4-[(5-hydroxy-1-methyl-1H-pyrazole-3-carbonyl)-amino]-pentanoic acid] | – | ≥9.0
COc1ccccc1-c1ccc(C[C@@H](C[C@H](O)C(=O)O)NC(=O)c2ccc3nnn(O)c3c2)cc1 [Example 23-3, (2S,4S)-2-Hydroxy-4-[(3-hydroxy-3H-benzotriazole-5-carbonyl)-amino]-5-(2′-methoxy-biphenyl-4-yl)-pentanoic acid] | – | ≥9.0
COc1ccccc1C(=O)Nc1cc(C(=O)N[C@H](Cc2ccc(-c3ccccc3)cc2)C[C@@H](O)C(=O)O)n[nH]1 [Example 15-32, (2R,4R)-5-Biphenyl-4-yl-2-hydroxy-4-{[5-(2-methoxy-benzoylamino)-1H-pyrazole-3-carbonyl]-amino}-pentanoic acid] | 1.26 to 10 | –
O=C(N[C@H](Cc1ccc(-c2cccc(Cl)c2)cc1)C[C@@H](O)C(=O)O)c1cc(-c2ccccc2O)n[nH]1 [Example 18-17, (2R,4R)-5-(3′-Chlorobiphenyl-4-yl)-2-hydroxy-4-{[5-(2-hydroxy-phenyl)-2H-pyrazole-3-carbonyl]-amino}-pentanoic acid] | – | ≥9.0
O=C(N[C@H](Cc1ccc(-c2ccccc2)cc1)C[C@@H](O)C(=O)O)c1cc(-c2cccnc2)[nH]n1 [Example 15-21, (2R,4R)-5-Biphenyl-4-yl-2-hydroxy-4-[(5-pyridin-3-yl-1H-pyrazole-3-carbonyl)-amino]-pentanoic acid] | – | ≥9.0
O=C(N[C@H](Cc1ccc(-c2ccccc2)cc1)C[C@@H](O)C(=O)O)c1cc(-c2ccc(Cl)c(Cl)c2)no1 [Example 12-12, (2R,4R)-5-Biphenyl-4-yl-4-{[3-(3,4-dichlorophenyl)-isoxazole-5-carbonyl]-amino}-2-hydroxy-pentanoic acid] | 1.26 to 10 | –
COc1ccccc1-c1cc(C(=O)N[C@H](Cc2ccc(-c3ccccc3)cc2)C[C@@H](O)C(=O)O)[nH]n1 [Example 15-79, (2R,4R)-5-Biphenyl-4-yl-2-hydroxy-4-{[5-(2-methoxy-phenyl)-2H-pyrazole-3-carbonyl]-amino}-pentanoic acid] | – | ≥9.0
O=C(NC(Cc1ccc(-c2ccccc2)cc1)C[C@@H](O)C(=O)O)c1cc(-c2ccc(Cl)cc2)n[nH]1 (stereo partly shown) [Example 15-83] | – | ≥9.0

— patent US10759813B2, “Neprilysin inhibitors” (THERAVANCE BIOPHARMA R&D IP, LLC, priority 2010, dated 2020)
